According to US5869081A, “Progesterone vaginal ring for treatment of infertility” (priority 1996, dated 1999):

Columns and labels:
endometrium = assay: histology / dating of endometrial biopsies (Example I); format: in vivo, human
Experimental: Endometrial biopsies were performed with an endometrial suction curette (Z-Sampler, California) on day +3 in six patients. Three patients using the 10 mg vaginal ring had endometrial biopsies repeated on day +7. […] Steril. 1:3-25 was used for assessing the day of the menstrual cycle. Endometrial tissue was processed routinely to obtain hematoxylin and eosin stained sections. These were coded and examined by the same pathologist, who was blinded for the hormone replacement therapy of each patient.

[1] = tested on: functionally agonadal women; assay: clinical pregnancy and nidation rates in an oocyte donation cycle (Example III); format: in vivo, human
Experimental: Seventeen functionally agonadal women used a progesterone containing vaginal ring having an in vitro release rate of 10 mg per day as the only source of progesterone during an oocyte donation cycle. When pregnancy was documented on day 12 after embryo transfer, the 10 mg ring was replaced by a vaginal ring having an in vitro release rate of 15 mg, which was left in place until the twelfth week of pregnancy. In the same period of time eighteen other women received daily i.m. injections of 100 mg progesterone. The decision to use one or the other route of administration was not randomized.

[2] = tested on: normogonadal women undergoing IVF-ET; assay: clinical pregnancy rate in IVF-ET (Example IV); format: in vivo, human; conditions: daily i.m. injection of 50 mg, 10/26
Experimental: Forty-nine normogonadal women undergoing IVF-ET were randomly assigned to receive a progesterone containing vaginal ring having an in vitro release rate of 10 mg per day (n=23) or a daily intramuscular (i.m.) injection of 50 mg progesterone (n=26). In order to induce multiple follicle growth, subjects received a sequential treatment with a gonadotropin releasing hormone (GnRH) agonist, human menopausal gonadotropin (hMG) and human […] gonadotropin (hCG). Oocytes were aspirated thirty-six hours after administering hCG, and treatment with progesterone, either i.m. or by vaginal ring, began at this time. Progesterone treatment continued for a maximum of seven weeks.

[3] = human, in vivo
[4] = tested on: rat embryos at the two cell stage; conditions: cultured in vitro in the presence vs absence of hormone; cited from earlier work
[5] = oral administration; rapid clearance by the liver; cited from earlier work

## CC(=O)[C@H]1CC[C@H]2[C@@H]3CCC4=CC(=O)CC[C@]4(C)[C@H]3CC[C@]12C [progesterone]
endometrium; intravaginal delivery
  circulatory progesterone level with adequate biological effect on the endometrium: 12-15 nmol/L
endometrium; women supplemented with intramuscular progesterone
  advanced endometrial pattern: did not exhibit this advanced pattern
[1]; daily i.m. injections of 100 mg, eighteen women
  clinical pregnancy rate: 38.9%
[1]; i.m. progesterone 100 mg daily, 9/66
  nidation rate (total number of gestational sacs/total number of embryos transferred): 13.6%
[2]
  clinical pregnancy rate: 38.4%
[3]
  systemic side effects: no systemic side effects
[4]
  development to the blastocyst stage: better development to the blastocyst stage
[5]
  bioavailability in the circulation: low bioavailability
